{"source": "paper PMC5792193", "about": "(Proteins, 2009)", "key": {"U87MG tumor xenograft": {"test_system": "U87MG tumor xenograft", "details": "peptide conjugated to a small molecule fluorochrome or radiolabel; compared to weaker binding peptide conjugates including FN-RGD2 and c(RGDyK); cited from earlier work"}, "[1]": {"details": "mouse, serum"}, "[2]": {"details": "human serum, 37 °C, 24 h, reversed-phase HPLC"}, "[3]": {"test_system": "U87MG cell adhesion to fibronectin-coated plates", "experiment": "Integrin-dependent cell adhesion assay", "type": "cell-based, human", "details": "U87MG cells, 2 h"}, "αvβ3 integrin": {"target": "αvβ3 integrin (Homo sapiens, UniProt P05106+P06756)", "sequence (P06756 31-889 limits assumed)": "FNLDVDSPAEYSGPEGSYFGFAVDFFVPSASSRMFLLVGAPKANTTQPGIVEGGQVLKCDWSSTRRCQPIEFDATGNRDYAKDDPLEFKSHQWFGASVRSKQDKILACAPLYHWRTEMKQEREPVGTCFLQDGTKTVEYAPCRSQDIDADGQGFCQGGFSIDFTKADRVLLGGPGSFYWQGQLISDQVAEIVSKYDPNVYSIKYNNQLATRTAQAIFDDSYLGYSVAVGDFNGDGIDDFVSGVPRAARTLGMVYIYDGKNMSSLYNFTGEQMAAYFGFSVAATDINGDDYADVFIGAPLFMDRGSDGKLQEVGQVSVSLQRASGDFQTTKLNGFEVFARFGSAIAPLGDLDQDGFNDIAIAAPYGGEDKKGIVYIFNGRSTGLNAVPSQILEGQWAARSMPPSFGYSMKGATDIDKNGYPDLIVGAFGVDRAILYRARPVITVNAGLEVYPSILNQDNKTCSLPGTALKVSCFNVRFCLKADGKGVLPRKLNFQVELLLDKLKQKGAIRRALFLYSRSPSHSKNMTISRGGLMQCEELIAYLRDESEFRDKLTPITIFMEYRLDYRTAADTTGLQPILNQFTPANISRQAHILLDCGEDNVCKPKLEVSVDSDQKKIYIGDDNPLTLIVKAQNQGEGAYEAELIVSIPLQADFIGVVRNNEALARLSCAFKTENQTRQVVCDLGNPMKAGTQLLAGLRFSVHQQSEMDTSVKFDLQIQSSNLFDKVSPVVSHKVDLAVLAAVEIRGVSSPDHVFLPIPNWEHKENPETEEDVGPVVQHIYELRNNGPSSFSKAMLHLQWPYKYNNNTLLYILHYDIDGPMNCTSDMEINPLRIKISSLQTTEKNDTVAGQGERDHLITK", "sequence (P06756 891-1048 partner limits assumed)": "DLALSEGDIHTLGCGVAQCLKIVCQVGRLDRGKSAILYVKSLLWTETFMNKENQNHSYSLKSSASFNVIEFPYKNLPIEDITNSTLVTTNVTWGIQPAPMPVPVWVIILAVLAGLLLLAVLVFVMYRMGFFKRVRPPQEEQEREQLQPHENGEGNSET", "sequence (P05106 27-788)": "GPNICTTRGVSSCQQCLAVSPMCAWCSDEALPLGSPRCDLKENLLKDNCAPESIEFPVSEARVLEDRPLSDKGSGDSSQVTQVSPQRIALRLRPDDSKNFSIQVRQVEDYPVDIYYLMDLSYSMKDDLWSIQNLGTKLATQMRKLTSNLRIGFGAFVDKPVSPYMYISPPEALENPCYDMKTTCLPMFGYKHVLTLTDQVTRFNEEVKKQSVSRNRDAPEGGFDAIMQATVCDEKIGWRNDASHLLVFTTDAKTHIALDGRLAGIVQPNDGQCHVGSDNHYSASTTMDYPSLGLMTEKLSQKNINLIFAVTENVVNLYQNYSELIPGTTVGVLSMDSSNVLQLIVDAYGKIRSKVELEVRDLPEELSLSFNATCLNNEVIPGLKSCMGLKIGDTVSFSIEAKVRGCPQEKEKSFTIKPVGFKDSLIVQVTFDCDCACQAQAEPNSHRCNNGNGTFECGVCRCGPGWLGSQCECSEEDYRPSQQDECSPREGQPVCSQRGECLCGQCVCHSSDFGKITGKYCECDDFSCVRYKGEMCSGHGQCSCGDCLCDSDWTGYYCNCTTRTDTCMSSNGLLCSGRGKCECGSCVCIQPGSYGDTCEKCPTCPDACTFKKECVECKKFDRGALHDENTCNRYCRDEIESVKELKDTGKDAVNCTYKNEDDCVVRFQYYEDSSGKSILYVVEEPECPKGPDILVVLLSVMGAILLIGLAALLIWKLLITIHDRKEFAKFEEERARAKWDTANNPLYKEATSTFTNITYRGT", "details": "cited from earlier work"}, "α5β1 integrin": {"target": "α5β1 integrin (Homo sapiens, UniProt P05556+P08648)", "sequence (P08648 42-894 limits assumed)": "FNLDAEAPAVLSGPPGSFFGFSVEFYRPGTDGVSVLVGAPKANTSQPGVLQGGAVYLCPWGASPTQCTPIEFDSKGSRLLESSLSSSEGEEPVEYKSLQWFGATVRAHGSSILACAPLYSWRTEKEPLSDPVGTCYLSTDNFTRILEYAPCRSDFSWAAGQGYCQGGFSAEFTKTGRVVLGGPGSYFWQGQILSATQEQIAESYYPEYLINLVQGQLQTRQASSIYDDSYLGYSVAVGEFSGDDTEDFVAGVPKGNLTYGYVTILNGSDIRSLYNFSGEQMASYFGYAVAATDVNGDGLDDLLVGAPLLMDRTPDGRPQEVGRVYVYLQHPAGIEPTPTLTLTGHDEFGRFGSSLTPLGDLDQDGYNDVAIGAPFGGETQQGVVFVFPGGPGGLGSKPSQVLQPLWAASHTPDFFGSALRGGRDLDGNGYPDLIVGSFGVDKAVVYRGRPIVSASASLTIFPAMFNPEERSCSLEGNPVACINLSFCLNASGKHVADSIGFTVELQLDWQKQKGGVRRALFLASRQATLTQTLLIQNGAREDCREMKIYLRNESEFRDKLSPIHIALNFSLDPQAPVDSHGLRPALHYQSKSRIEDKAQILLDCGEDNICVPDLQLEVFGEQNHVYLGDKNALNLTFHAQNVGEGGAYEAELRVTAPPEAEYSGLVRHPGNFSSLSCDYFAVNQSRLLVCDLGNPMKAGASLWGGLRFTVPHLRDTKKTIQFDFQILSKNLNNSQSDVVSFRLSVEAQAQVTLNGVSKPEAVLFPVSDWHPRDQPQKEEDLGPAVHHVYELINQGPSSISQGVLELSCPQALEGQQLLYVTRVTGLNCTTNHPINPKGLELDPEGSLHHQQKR", "sequence (P08648 895-1049 partner limits assumed)": "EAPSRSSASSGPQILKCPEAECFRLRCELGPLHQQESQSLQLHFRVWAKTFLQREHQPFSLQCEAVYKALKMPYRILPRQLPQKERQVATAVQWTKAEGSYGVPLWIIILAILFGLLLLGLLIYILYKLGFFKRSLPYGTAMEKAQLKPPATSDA", "sequence (P05556 21-798)": "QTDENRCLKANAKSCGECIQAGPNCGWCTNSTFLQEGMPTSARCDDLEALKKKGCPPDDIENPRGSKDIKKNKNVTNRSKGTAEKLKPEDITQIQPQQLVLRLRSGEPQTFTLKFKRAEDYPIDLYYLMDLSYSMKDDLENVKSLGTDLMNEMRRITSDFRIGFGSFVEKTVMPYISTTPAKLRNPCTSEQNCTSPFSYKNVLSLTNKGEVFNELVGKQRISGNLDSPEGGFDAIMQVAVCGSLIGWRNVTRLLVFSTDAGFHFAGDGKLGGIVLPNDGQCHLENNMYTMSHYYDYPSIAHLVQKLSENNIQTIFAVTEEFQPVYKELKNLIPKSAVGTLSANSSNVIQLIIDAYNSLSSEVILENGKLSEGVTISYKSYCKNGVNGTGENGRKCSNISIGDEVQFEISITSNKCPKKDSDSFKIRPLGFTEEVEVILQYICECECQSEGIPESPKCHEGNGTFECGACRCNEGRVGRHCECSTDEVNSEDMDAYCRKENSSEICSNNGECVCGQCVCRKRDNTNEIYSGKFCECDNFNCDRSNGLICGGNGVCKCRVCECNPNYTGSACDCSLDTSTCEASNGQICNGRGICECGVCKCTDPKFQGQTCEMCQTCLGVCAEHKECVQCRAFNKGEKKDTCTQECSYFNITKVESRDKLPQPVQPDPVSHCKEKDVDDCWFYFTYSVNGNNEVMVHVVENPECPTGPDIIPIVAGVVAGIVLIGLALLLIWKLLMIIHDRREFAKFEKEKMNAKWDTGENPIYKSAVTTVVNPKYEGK", "details": "cited from earlier work"}, "[4]": {"target": "integrin αvβ3 (Homo sapiens) (UniProt P06756)", "sequence (P06756 31-1048, chain 1 of 2)": "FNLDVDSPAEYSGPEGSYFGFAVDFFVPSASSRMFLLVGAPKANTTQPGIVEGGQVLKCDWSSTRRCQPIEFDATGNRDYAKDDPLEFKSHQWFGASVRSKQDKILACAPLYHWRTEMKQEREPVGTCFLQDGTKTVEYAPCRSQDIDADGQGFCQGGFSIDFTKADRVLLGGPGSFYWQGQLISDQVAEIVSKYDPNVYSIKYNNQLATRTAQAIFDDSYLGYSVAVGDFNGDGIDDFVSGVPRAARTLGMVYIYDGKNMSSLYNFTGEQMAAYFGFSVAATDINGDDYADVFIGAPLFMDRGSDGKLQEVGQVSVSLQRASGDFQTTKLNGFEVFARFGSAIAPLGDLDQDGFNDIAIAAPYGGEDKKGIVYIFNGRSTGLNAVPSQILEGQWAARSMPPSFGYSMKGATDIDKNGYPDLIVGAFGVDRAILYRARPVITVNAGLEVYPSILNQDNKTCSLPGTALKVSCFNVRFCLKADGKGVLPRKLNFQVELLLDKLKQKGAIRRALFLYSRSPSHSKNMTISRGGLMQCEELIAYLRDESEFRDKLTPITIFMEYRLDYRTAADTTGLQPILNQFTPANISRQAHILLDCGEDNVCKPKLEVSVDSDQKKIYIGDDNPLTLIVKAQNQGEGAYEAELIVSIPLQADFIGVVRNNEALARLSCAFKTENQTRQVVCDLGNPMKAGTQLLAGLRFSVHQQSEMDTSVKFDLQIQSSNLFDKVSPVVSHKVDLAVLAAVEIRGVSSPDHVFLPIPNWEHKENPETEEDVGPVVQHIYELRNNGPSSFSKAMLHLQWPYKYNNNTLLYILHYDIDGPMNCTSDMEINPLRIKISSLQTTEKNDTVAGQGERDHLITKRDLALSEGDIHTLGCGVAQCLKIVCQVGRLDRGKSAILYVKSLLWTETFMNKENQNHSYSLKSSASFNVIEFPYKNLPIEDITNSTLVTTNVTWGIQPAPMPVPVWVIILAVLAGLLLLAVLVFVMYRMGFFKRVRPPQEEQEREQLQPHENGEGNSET", "sequence (P05106 27-788, chain 2 of 2, further chain)": "as the sequence (P05106 27-788) above", "details": "cited from earlier work"}}, "note": "Positions of bridges follow the written chain, without caps; N, C: chain ends. Residues, ends and D or L forms follow the SMILES beside them.", "data": [{"compound": "CC(C)C[C@@H]1NC(=O)[C@@H]2CSSC[C@@H](C(=O)NCC(=O)O)NC(=O)[C@H](Cc3ccccc3)NC(=O)CNC(=O)[C@H](CC(N)=O)NC(=O)[C@@H]3CCCN3C(=O)CNC(=O)[C@@H]3CSSC[C@H](NC(=O)[C@H]([C@@H](C)O)NC(=O)[C@H](CC(C)C)NC(=O)[C@@H]4CCCN4C(=O)[C@@H]4CCCN4C(=O)[C@H](CC(N)=O)NC(=O)[C@H](CC(=O)O)NC(=O)CNC(=O)[C@H](CCCNC(=N)N)NC(=O)[C@@H]4CCCN4C(=O)[C@H](CCCNC(=N)N)NC(=O)[C@@H]4CCCN4C(=O)[C@@H](NC(=O)CN)CSSC[C@H](NC(=O)CNC(=O)[C@H](C)NC1=O)C(=O)N[C@@H](C(C)C)C(=O)N3)C(=O)N[C@@H](CO)C(=O)N[C@@H](CCC(N)=O)C(=O)N[C@@H](CC(=O)O)C(=O)N[C@@H](CO)C(=O)N[C@@H](CC(=O)O)C(=O)N2", "note": "[2.5F] (H-GCPRPRGDNPPLTCSQDSDCLAGCVCGPNGFCG-OH; disulfide 2-24, 14-26, 20-32)", "values": [{"measurement": "tumor uptake (in words)", "setting": "U87MG tumor xenograft", "value": "significant increase in tumor uptake"}]}, {"compound": "CC(C)C[C@@H]1NC(=O)[C@@H]2CSSC[C@@H](C(=O)NCC(=O)O)NC(=O)[C@H](Cc3ccccc3)NC(=O)CNC(=O)[C@H](CC(N)=O)NC(=O)[C@@H]3CCCN3C(=O)CNC(=O)[C@@H]3CSSC[C@H](NC(=O)[C@H](CO)NC(=O)[C@H]([C@@H](C)O)NC(=O)[C@@H]4CCCN4C(=O)[C@H](C)NC(=O)[C@H](Cc4c[nH]c5ccccc45)NC(=O)[C@H](CC(=O)O)NC(=O)CNC(=O)[C@H](CCCNC(=N)N)NC(=O)CNC(=O)[C@H](CCC(N)=O)NC(=O)[C@@H]4CCCN4C(=O)[C@@H](NC(=O)CN)CSSC[C@H](NC(=O)CNC(=O)[C@H](C)NC1=O)C(=O)N[C@@H](C(C)C)C(=O)N3)C(=O)N[C@@H](CO)C(=O)N[C@@H](CCC(N)=O)C(=O)N[C@@H](CC(=O)O)C(=O)N[C@@H](CO)C(=O)N[C@@H](CC(=O)O)C(=O)N2", "note": "[2.5D] (H-GCPQGRGDWAPTSCSQDSDCLAGCVCGPNGFCG-OH; disulfide 2-24, 14-26, 20-32)", "values": [{"measurement": "remaining at 24 h", "setting": "[1]", "value": "~90", "unit": "%"}, {"measurement": "tumor uptake (in words)", "setting": "U87MG tumor xenograft", "value": "significant increase in tumor uptake"}, {"measurement": "intact peptide remaining", "setting": "[2]", "value": "approximately 90%"}]}, {"compound": "Echistatin", "values": [{"measurement": "block of U87MG cell adhesion to fibronectin-coated plates (in words)", "setting": "[3]", "value": "able to block"}]}, {"compound": "Ac-PHSCN-NH2 [ATN-161]", "values": [{"measurement": "binding affinity to αvβ3 integrin (in words)", "setting": "αvβ3 integrin", "value": "micromolar affinity"}, {"measurement": "binding affinity to α5β1 integrin (in words)", "setting": "α5β1 integrin", "value": "micromolar affinity"}]}, {"compound": "Echistatin (from UniProt P17347)", "values": [{"measurement": "Kd", "setting": "[4]", "value": 360, "unit": "pM"}]}]}
